The values below come from patent publication US11198687B2, “Heteroaryl allosteric modulators of nicotinic acetylcholine receptors” (Merck Sharp & Dohme Corp., priority 2017, dated 2021).

The assay addresses human α7 nAChR (Homo sapiens, UniProt P36544). As to the kind of experiment: Automated patch-clamp electrophysiology functional assay (Assay A). It is filed as cell-based. As to conditions: IonFlux HT whole-cell population patch, HEK cell line stably expressing human RIC-3 and human α7, 40 μM acetylcholine. Summed up:
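Whole-cell population patch clamp at room temperature on HEK cells stably expressing human α7 and RIC-3, held at −60 mV. Compounds tested at three ascending concentrations per recording, with or without 40 μM acetylcholine; currents quantified relative to an initial 1 s 40 μM acetylcholine response; EC50 from concentration series.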
In general terms: In patch-clamp work, channel activity is measured electrically.

Like-named read-outs stand apart in the source and are kept apart here.

Chain of human α7 nAChR (P36544 23-502): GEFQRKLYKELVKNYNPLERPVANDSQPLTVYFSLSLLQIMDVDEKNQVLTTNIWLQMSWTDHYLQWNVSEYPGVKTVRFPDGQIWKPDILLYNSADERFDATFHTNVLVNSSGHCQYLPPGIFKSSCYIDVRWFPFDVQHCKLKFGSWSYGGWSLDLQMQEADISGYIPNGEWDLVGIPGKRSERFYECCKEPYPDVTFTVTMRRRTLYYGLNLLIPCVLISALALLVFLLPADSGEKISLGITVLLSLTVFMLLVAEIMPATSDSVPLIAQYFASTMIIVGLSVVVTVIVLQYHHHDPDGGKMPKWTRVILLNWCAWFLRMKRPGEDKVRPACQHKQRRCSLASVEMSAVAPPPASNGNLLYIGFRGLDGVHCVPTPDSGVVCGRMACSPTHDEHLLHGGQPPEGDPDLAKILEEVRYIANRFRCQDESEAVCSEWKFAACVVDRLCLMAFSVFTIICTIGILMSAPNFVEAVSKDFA

With `CC1(C)[C@H](c2ccc(S(N)(=O)=O)nc2)[C@H]1c1nc(-c2ccc(F)cc2F)no1` [Example A8, 5-{(1R,3R)-3-[3-(2,4-Difluorophenyl)-1,2,4-oxadiazol-5-yl]-2,2-dimethylcyclopropyl}pyridine-2-sulfonamide], the EC50 (read-out: α7 nAChR Potency) fell in the range of 500 to 5000 nM.

As to `CC1(C)[C@@H](c2nc(-c3cncc(F)c3)no2)[C@@H]1c1ncc(S(N)(=O)=O)s1` (racemic) [Example D3, 2-{trans-3-[3-(5-Fluoropyridin-3-yl)-1,2,4-oxadiazol-5-yl]-2,2-dimethylcyclopropyl}-1,3-thiazole-5-sulfonamide], the EC50 reads like this: (read-out: α7 nAChR EC50) 1600 nM; (read-out: α7 nAChR Potency) 500 to 5000 nM.

As to `CC1(C)[C@@H](c2nc3ccccc3o2)[C@@H]1c1ncc(S(N)(=O)=O)s1` (racemic) [Example D1, 2-[trans-3-(1,3-Benzoxazol-2-yl)-2,2-dimethylcyclopropyl]-1,3-thiazole-5-sulfonamide], the EC50 reads like this: (read-out: α7 nAChR EC50) 2000 nM; (read-out: α7 nAChR Potency) 500 to 5000 nM.

As for `CC1(C)C(c2ccc(S(N)(=O)=O)nc2)C1c1cc(-c2cccc(F)c2)no1` (racemic) [Example C3, 5-{trans-3-[3-(3-Fluorophenyl)isoxazol-5-yl]-2,2-dimethylcycpropyl}pyridine-2-sulfonamide], the EC50 was 430 nM (read-out: α7 nAChR EC50) and 100 to 500 nM (read-out: α7 nAChR Potency).

With `CC1(C)[C@@H](c2nc(-c3ccccc3)no2)[C@@H]1c1ncc(S(N)(=O)=O)s1` [Example 6, 2-[(1S,3S)-2,2-dimethyl-3-(3-phenyl-1,2,4-oxadiazol-5-yl)cyclopropyl]-1,3-thiazole-5-sulfonamide], the EC50 is 590 nM (read-out: α7 nAChR EC50) and 500 to 5000 nM (read-out: α7 nAChR Potency).

In the case of `CC1(C)[C@H](c2ccc(S(N)(=O)=O)nc2)[C@H]1c1nc(-c2cncc(F)c2)no1` [Example A9, 5-{(1R,3R)-3-[3-(5-Fluoropyridin-3-yl)-1,2,4-oxadiazol-5-yl]-2,2-dimethylcyclopropyl}pyridine-2-sulfonamide], the EC50 is, setting by setting: (read-out: α7 nAChR EC50) 5000 nM; (read-out: α7 nAChR Potency) 500 to 5000 nM.

For `CC1(C)[C@H](c2ccc(S(N)(=O)=O)nc2)[C@H]1c1nc(C2CCCCC2)no1` [Example 7, 5-[(1R,3R)-3-(3-Cyclohexyl-1,2,4-oxadiazol-5-yl)-2,2-dimethylcyclopropyl]pyridine-2-sulfonamide], the EC50 reads like this: (read-out: α7 nAChR EC50) 640 nM; (read-out: α7 nAChR Potency) 500 to 5000 nM.

On to `CC(C)c1noc([C@H]2[C@H](c3ccc(S(N)(=O)=O)cn3)C2(C)C)n1` (racemic) [Example G3, 6-{trans-2,2-Dimethyl-3-[3-(propan-2-yl)-1,2,4-oxadiazol-5-yl]cyclopropyl}pyridine-3-sulfonamide], for which, for the setting “read-out: α7 nAChR Potency”, the EC50 is 500 to 5000 nM.

In the case of `CC1(C)[C@@H](c2ccc(S(N)(=O)=O)nc2)[C@@H]1c1noc(C2(C(F)(F)F)CC2)n1` (racemic) [Example C11, 5-(trans-2,2-Dimethyl-3-{5-[1-(trifluoromethyl)cyclopropyl]-1,2,4-oxadiazol-3-yl}cyclopropyl)pyridine-2-sulfonamide], the EC50 (read-out: α7 nAChR EC50) was determined as 1500 nM and the EC50 (read-out: α7 nAChR Potency) was in the range of 500 to 5000 nM.

On to `CC(C)c1noc([C@@H]2[C@@H](c3ccc(S(N)(=O)=O)nc3)C2(C)C)n1` [Example A14, 5-{(1R,3R)-2,2-Dimethyl-3-[3-(propan-2-yl)-1,2,4-oxadiazol-5-yl]cyclopropyl}pyridine-2-sulfonamide], for which the EC50 (read-out: α7 nAChR EC50) stood at 570 nM and the EC50 (read-out: α7 nAChR Potency) is 500 to 5000 nM.

For `CC1(C)[C@@H](c2ccc(S(N)(=O)=O)cn2)[C@@H]1c1nc(-c2cccc(F)c2)no1` [Example F1, 6-{(1S,3S)-3-[3-(3-Fluorophenyl)-1,2,4-oxadiazol-5-yl]-2,2-dimethylcyclopropyl}pyridine-3-sulfonamide], the EC50 by setting is: (read-out: α7 nAChR EC50) 1100 nM; (read-out: α7 nAChR Potency) 500 to 5000 nM.

On to `CC1(C)[C@@H](c2nc(C3CC(F)(F)C3)no2)[C@@H]1c1ncc(S(N)(=O)=O)s1` (racemic) [Example D6, 2-{trans-3-[3-(3,3-Difluorocyclobutyl)-1,2,4-oxadiazol-5-yl]-2,2-dimethylcyclopropyl}-1,3-thiazole-5-sulfonamide], for which the EC50 (read-out: α7 nAChR Potency) lay in the range of 5000 to 50000 nM.

Take `CC1(C)[C@@H](c2ccc(S(N)(=O)=O)nc2)[C@@H]1c1nc(C2CCCCC2)no1` [Example B6, 5-[(1S,3S)-3-(3-Cyclohexyl-1,2,4-oxadiazol-5-yl)-2,2-dimethylcyclopropyl]pyridine-2-sulfonamide]: under “read-out: α7 nAChR Potency”, the EC50 fell in the range of 100 to 500 nM.

In the case of `CC1(C)[C@@H](c2ccc(S(N)(=O)=O)nc2)[C@@H]1c1nc(-c2ccccc2)no1` (racemic) [Example C6, 5-[trans-2,2-Dimethyl-3-(3-phenyl-1,2,4-oxadiazol-5-yl)cyclopropyl]pyridine-2-sulfonamide], the EC50 (read-out: α7 nAChR Potency) lay within 500 to 5000 nM.

`CC1(C)[C@@H](c2ccc(S(N)(=O)=O)nc2)[C@@H]1c1noc(-c2c(F)cccc2F)n1` (racemic) [Example C12, 5-{trans-3-[5-(2,6-Difluorophenyl)-1,2,4-oxadiazol-3-yl]-2,2-dimethylcyclopropyl}pyridine-2-sulfonamide]: the EC50 (read-out: α7 nAChR EC50) came to 1200 nM and the EC50 (read-out: α7 nAChR Potency) lay in the range of 500 to 5000 nM.

For `CC1(C)[C@H](c2ccc(S(N)(=O)=O)nc2)[C@H]1c1nc(C2CC(F)(F)C2)no1` [Example A11, 5-{(1R,3R)-3-[3-(3,3-Difluorocyclobutyl)-1,2,4-oxadiazol-5-yl]-2,2-dimethylcyclopropyl}pyridine-2-sulfonamide], the EC50 is, setting by setting: (read-out: α7 nAChR EC50) 3000 nM; (read-out: α7 nAChR Potency) 500 to 5000 nM.

For `CC1(C)[C@H](c2ccc(S(N)(=O)=O)nc2)[C@H]1c1nc(C2CCC2)no1` [Example A12, 5-[(1R,3R)-3-(3-Cyclobutyl-1,2,4-oxadiazol-5-yl)-2,2-dimethylcyclopropyl]pyridine-2-sulfonamide], the EC50 (read-out: α7 nAChR Potency) lay in the range of 500 to 5000 nM.

`CC1(C)[C@@H](c2ccc(S(N)(=O)=O)cn2)[C@@H]1c1nc(-c2ccccc2)no1` [Example F10, 6-[(1S,3S)-2,2-Dimethyl-3-(3-phenyl-1,2,4-oxadiazol-5-yl)cyclopropyl]pyridine-3-sulfonamide]: the EC50 by setting is: (read-out: α7 nAChR EC50) 1100 nM; (read-out: α7 nAChR Potency) 500 to 5000 nM.

Take `CC1(C)[C@@H](c2ccc(S(N)(=O)=O)cn2)[C@@H]1c1nc(-c2ccc(F)cc2F)no1` [Example F5, 6-{(1S,3S)-3-[3-(2,4-Difluorophenyl)-1,2,4-oxadiazol-5-yl]-2,2-dimethylcyclopropyl}pyridine-3-sulfonamide]: the EC50 runs as follows: (read-out: α7 nAChR EC50) 1700 nM; (read-out: α7 nAChR Potency) 500 to 5000 nM.

Take `CC1(C)[C@@H](c2nc(-c3ccccc3)no2)[C@@H]1c1ncc(S(N)(=O)=O)s1` (racemic) [Example D4, 2-[trans-2,2-Dimethyl-3-(3-phenyl-1,2,4-oxadiazol-5-yl)cyclopropyl]-1,3-thiazole-5-sulfonamide]: the EC50 (read-out: α7 nAChR EC50) was 360 nM and the EC50 (read-out: α7 nAChR Potency) lay within 100 to 500 nM.

As to `CC1(C)[C@@H](c2ccc(S(N)(=O)=O)cn2)[C@@H]1c1nc(-c2cncc(F)c2)no1` [Example F11, 6-{(1S,3S)-3-[3-(5-Fluoropyridin-3-yl)-1,2,4-oxadiazol-5-yl]-2,2-dimethylcyclopropyl}pyridine-3-sulfonamide], the EC50 (read-out: α7 nAChR EC50) is 3400 nM and the EC50 (read-out: α7 nAChR Potency) lay within 500 to 5000 nM.

As to `CC1(C)[C@@H](c2ccc(S(N)(=O)=O)nc2)[C@@H]1c1nnc(-c2ccc(F)cc2F)s1` (relative stereo) [Example 2, 5-{trans-3-[5-(2,4-Difluorophenyl)-1,3,4-thiadiazol-2-yl]-2,2-dimethylcyclopropyl}pyridine-2-sulfonamide], the EC50 reads like this: (read-out: α7 nAChR EC50) 480 nM; (read-out: α7 nAChR Potency) 100 to 500 nM.

For `COc1ccc(Cl)cc1-c1noc([C@H]2[C@H](c3ccc(S(N)(=O)=O)cn3)C2(C)C)n1` [Example F4, 6-{(1S,3S)-3-[3-(5-Chloro-2-methoxyphenyl)-1,2,4-oxadiazol-5-yl]-2,2-dimethylcyclopropyl}pyridine-3-sulfonamide], the EC50 (read-out: α7 nAChR Potency) lay in the range of 500 to 5000 nM.

With `COc1ccc(Cl)cc1-c1noc([C@@H]2[C@@H](c3ccc(S(N)(=O)=O)cn3)C2(C)C)n1` [Example E4, 6-{(1R,3R)-3-[3-(5-Chloro-2-methoxyphenyl)-1,2,4-oxadiazol-5-yl]-2,2-dimethylcyclopropyl}pyridine-3-sulfonamide], the EC50 is 5400 nM (read-out: α7 nAChR EC50) and 5000 to 50000 nM (read-out: α7 nAChR Potency).
